Data as given in publication doi:10.1101/2021.10.07.463234v2 (biorxiv, 2021).
Counter-ions that a name gives are not always drawn. Numbered stars: 1 amine (or outer) side, 2 acyl side, 3 side chain; on linkers, the order of the positions; unused ones are H or OH. Bridge positions count the residues as written; N and C are the ends. Square brackets hold non-standard residues; d marks the D form. Peptide text beside a SMILES is read from it. * marks the point of attachment. pTerphenylCO(4''-OnC5H11) = CCCCCOc1ccc(-c2ccc(-c3ccc(C(=O)*)cc3)cc2)cc1; Orn(4R-OH,5R-OH) = O=C([C@H](C[C@@H](O)[C@@H](O)N[*:3])N[*:1])[*:2]; hTyr(3S-OH,4S-OH) = N[C@H](C(=O)O)[C@H](O)[C@@H](O)c1ccc(O)cc1; Pro(3S-OH,4S-Me) = C[C@H]1CN[C@H](C(=O)O)[C@H]1O; Hyp = O=C(O)[C@@H]1C[C@@H](O)CN1

molecular target: SARS-CoV-2 Mac1 (Severe acute respiratory syndrome coronavirus 2, UniProt P0DTD1); experiment: biochemical; conditions: 100 µM; inhibitor

First: C[C@@H](O)[C@H]1C(=O)N2C(C(=O)O)=C(S[C@@H]3CN[C@H](C(=O)N(C)C)C3)[C@H](C)[C@H]12 [Meropenem]
Second: Cc1ccc(Nc2nccc(N(C)c3ccc4c(C)n(C)nc4c3)n2)cc1S(N)(=O)=O [Pazopanib HCl (GW786034 HCl)]
The “%inhibition” value of the first is lower: 0% for the first, 31.56% for the second.

same assay, conditions: read-out: %inhibition

Compared with Oc1ccc(C2CNCCc3c2cc(O)c(O)c3Cl)cc1 (centres unmarked) [Fenoldopam mesylate], Oc1ccc(Cl)cc1Cc1cc(Cl)ccc1O [Dichlorophene] is higher in inhibition at 100 µM: 0% for the first, 15% for the second.

Compared with CN1CCC(=C2c3ccccc3CCc3sccc32)CC1 [Pizotifen Malate], Cc1cc(Nc2cc(N3CCN(C)CC3)nc(Sc3ccc(NC(=O)C4CC4)cc3)n2)n[nH]1 [Tozasertib (VX-680, MK-0457)] is higher in inhibition at 100 µM: 0% for the first, 33.2% for the second.

First: S=c1[nH]cnc2nc[nH]c12 [Mercaptopurine (6-MP)]
Second: Oc1cc(O)c(Cl)cn1 [Gimeracil]
The inhibition at 100 µM of the first is higher: 19.8% for the first, 0% for the second.

C[Se]CC[C@H](N)C(=O)O [L-SelenoMethionine] and O=C(O)C(O)[C@H](O)[C@@H](O)[C@H](O)[C@H](O)CO (some centres unmarked) [Calcium Gluceptate] are the same in inhibition at 100 µM: 0% for the first, 0% for the second.

Going from COc1ccc2cccc(CCNC(C)=O)c2c1 [Agomelatine] to Cc1nc(C(=O)NCC(=O)O)c(O)c2ccc(Oc3ccccc3)cc12 [Roxadustat (FG-4592)], the inhibition at 100 µM falls from 36.5% to 14.8%.

Going from CN1C(=O)COc2c(C(=O)NC3CN4CCC3CC4)cc(Cl)cc21 (centres unmarked) [Azasetron HCl] to NC(=O)N1CCC(CC(=O)N2CCC([C@H]3c4ncc(Br)cc4CCc4cc(Cl)cc(Br)c43)CC2)CC1 [Lonafarnib], the inhibition at 100 µM rises from 0% to 29.6%.

Going from COC(=O)[C@@H]1[C@H]2C[C@H]3c4[nH]c5ccccc5c4CCN3C[C@@H]2CC[C@@H]1O [Yohimbine HCl] to CCOC(=O)[C@H](CCc1ccccc1)N[C@@H](C)C(=O)N1CCC[C@H]1C(=O)O [Enalapril Maleate], the inhibition at 100 µM rises from 0% to 16.8%.

First: CN[C@@H]1[C@H](O)[C@H](NC)[C@H]2O[C@@]3(O)C(=O)C[C@@H](C)O[C@H]3O[C@@H]2[C@H]1O [Spectinomycin 2HCl]
Second: CCc1ccc(Cc2ccc3c(c2)[C@]2(OC3)O[C@H](CO)[C@@H](O)[C@H](O)[C@H]2O)cc1 [Tofogliflozin(CSG 452)]
The inhibition at 100 µM of the first is higher: 11.7% for the first, 1.23% for the second.

Going from Oc1c(I)cc(Cl)c2cccnc12 [Clioquinol] to O=C(O)c1cc(-c2ccccc2)nc2ccccc12 [Cinchophen], the inhibition at 100 µM rises from 6.9% to 17.7%.

Compared with CC(C)c1cccc(C(C)C)c1O [Propofol], CN(C)C(=O)Oc1cccc([N+](C)(C)C)c1 [Neostigmine Bromide] is lower in inhibition at 100 µM: 19.3% for the first, 0% for the second.

Compared with C=C1C[C@@H]2[C@H](CC[C@]3(C)C(=O)CC[C@@H]23)[C@@]2(C)C=CC(=O)C=C12 [Exemestane], COc1cc2c(cc1OC)[C@@]13CCN4CC5=CCO[C@H]6CC(=O)N2[C@H]1[C@H]6[C@H]5C[C@H]43 [Brucine sulfate salt hydrate] is lower in inhibition at 100 µM: 11.1% for the first, 0% for the second.

First: O=C1NS(=O)(=O)c2ccccc21 [Saccharin]
Second: CCOC(=O)OC(C)OC1=C(C(=O)Nc2ccccn2)N(C)S(=O)(=O)c2ccccc21 (centres unmarked) [Ampiroxicam]
The inhibition at 100 µM of the first is lower: 0% for the first, 5.86% for the second.

First: C#Cc1cccc(Nc2ncnc3cc4c(cc23)OCCOCCOCCO4)c1 [Icotinib]
Second: O=C(/C=C/C=C/c1ccc2c(c1)OCO2)N1CCCCC1 [Piperine]
The inhibition at 100 µM of the first is higher: 15.2% for the first, 0% for the second.

For CCCCCOc1ccc(-c2ccc(-c3ccc(C(=O)N[C@H]4C[C@@H](O)[C@@H](O)NC(=O)[C@@H]5[C@@H](O)[C@@H](C)CN5C(=O)[C@H]([C@@H](C)O)NC(=O)[C@H]([C@H](O)[C@@H](O)c5ccc(O)cc5)NC(=O)[C@@H]5C[C@@H](O)CN5C(=O)[C@H]([C@@H](C)O)NC4=O)cc3)cc2)cc1 [Anidulafungin (LY303366)] ({pTerphenylCO(4''-OnC5H11)}-[Orn(4R-OH,5R-OH)]T[Hyp][hTyr(3S-OH,4S-OH)]T[Pro(3S-OH,4S-Me)]; lactam 1-C), the inhibition at 100 µM was 6.34%.
